# Literature values, collected in patent US5320960A, “Method of preparing solution enriched in xylanase using low molecular weight alcohol, organic salt and inorganic salt” (Genencor International, Inc., priority 1992, dated 1994).
# Biological target: β-Glucosidase (BG) components of fungal cellulase
# Details: competitive inhibition; read-out: Ki (glucose)
compound,measurement,value
OC[C@H]1OC(O)[C@H](O)[C@@H](O)[C@@H]1O (stereo partly shown) [glucose],Ki,~1000 µM
